The term inhibition denotes the percentage by which the read-out fell short of the control. Higher therefore signals a response far below the control. In general, IC50 refers to the point on the concentration scale where inhibition reaches its midpoint.

Inhibition and IC50 data for 16 compounds are collected here from ChEMBL document CHEMBL1131542, “A potent dipeptide inhibitor of dipeptidyl peptidase IV” (Bioorg Med Chem Lett, 1998).

The target in experiment [1] is T1, Dipeptidyl peptidase 4 (Homo sapiens, UniProt P27487). Briefly: Percent inhibition against Dipeptidylpeptidase IV (DPP IV) at a concentration of 10 uM.
Target sequence in this assay (P27487 whole entry, looked up): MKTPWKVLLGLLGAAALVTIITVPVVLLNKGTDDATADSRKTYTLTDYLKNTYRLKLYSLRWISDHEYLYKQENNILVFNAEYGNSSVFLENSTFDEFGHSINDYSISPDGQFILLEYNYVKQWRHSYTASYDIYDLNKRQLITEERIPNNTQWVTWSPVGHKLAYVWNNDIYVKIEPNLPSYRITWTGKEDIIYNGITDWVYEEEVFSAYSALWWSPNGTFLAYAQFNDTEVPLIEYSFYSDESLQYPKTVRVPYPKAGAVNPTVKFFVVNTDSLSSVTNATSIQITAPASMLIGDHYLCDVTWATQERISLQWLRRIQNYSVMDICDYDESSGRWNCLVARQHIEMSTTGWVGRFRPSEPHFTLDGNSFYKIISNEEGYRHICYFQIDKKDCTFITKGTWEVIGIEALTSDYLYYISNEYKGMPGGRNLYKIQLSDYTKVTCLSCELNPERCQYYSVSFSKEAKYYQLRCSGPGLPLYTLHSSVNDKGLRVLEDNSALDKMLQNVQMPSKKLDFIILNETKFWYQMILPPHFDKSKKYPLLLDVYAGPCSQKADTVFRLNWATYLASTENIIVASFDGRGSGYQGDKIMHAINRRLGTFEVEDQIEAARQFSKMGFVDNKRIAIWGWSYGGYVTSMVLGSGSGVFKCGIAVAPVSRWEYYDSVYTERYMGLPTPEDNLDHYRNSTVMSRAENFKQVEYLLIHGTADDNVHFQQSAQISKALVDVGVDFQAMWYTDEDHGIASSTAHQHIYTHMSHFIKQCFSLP
The target of experiment [2] is T1, Dipeptidyl peptidase 4. Briefly: Percent inhibition against Dipeptidyl peptidase IV (DPP IV) at a concentration of 1 uM.
Target sequence in this assay (P27487 whole entry, looked up): as above
Experiment [3] addresses T1, Dipeptidyl peptidase 4. As to the kind of experiment: Percent inhibition of Dipeptidyl peptidase IV (DPP IV) at a concentration of 10 uM.
Target sequence in this assay (P27487 whole entry, looked up): as above
The target in experiment [4] is T1, Dipeptidyl peptidase 4. Briefly: Inhibitory concentration against Dipeptidyl peptidase IV (DPP IV).
Target sequence in this assay (P27487 whole entry): as the sequence (P27487 whole entry, looked up) above

Square brackets hold non-standard residues; d marks the D form. Peptide text beside a SMILES is read from it. Tic = O=C(O)[C@@H]1Cc2ccccc2CN1

In the case of `COc1c(O)cc2c(c1O)CN(C(=O)[C@@H](N)Cc1c[nH]c3ccccc13)[C@H](C(=O)N[C@@H](CC(CO)CO)C(=O)O)C2`, the inhibition in experiment [1] was found to be 7.7%.

With `CC[C@H](C)[C@H](N)C(=O)N1Cc2ccccc2C[C@H]1C(=O)N[C@@H](C)C(=O)N[C@@H](CCCN=C(N)N)C(=O)N[C@@H](CC(N)=O)C(=O)N[C@@H](CC(=O)O)C(=O)N[C@@H](CCC(N)=O)C(=O)N[C@@H](CCC(=O)O)C(=O)NCC(=O)N[C@@H](Cc1c[nH]cn1)C(=O)N[C@H](C(=O)N[C@@H](CC(C)C)C(=O)N[C@@H](CCCCN)C(=O)N[C@@H](CCSC)C(=O)N[C@@H](Cc1ccccc1)C(=O)N1CCC[C@H]1C(=O)N[C@@H](CO)C(=O)N[C@H](C(=O)N[C@@H](Cc1c[nH]c2ccccc12)C(=O)N[C@@H](Cc1ccc(O)cc1)C(=O)N[C@H](C(=O)O)C(C)C)[C@@H](C)O)[C@@H](C)CC` (H-I[Tic]ARNDQEGHILKMFPSTWYV-OH), the inhibition in experiment [2] was 6%. Take `CC[C@H](C)[C@H](NC(=O)[C@H](Cc1c[nH]cn1)NC(=O)CNC(=O)[C@H](CCC(=O)O)NC(=O)[C@H](CCC(N)=O)NC(=O)[C@H](CC(=O)O)NC(=O)[C@H](CC(N)=O)NC(=O)[C@H](CCCN=C(N)N)NC(=O)[C@H](C)NC(=O)[C@@H]1Cc2ccccc2CN1C(=O)[C@@H](N)CCCCN)C(=O)N[C@@H](CC(C)C)C(=O)N[C@@H](CCCCN)C(=O)N[C@@H](CCSC)C(=O)N[C@@H](Cc1ccccc1)C(=O)N1CCC[C@H]1C(=O)N[C@@H](CO)C(=O)N[C@H](C(=O)N[C@@H](Cc1c[nH]c2ccccc12)C(=O)N[C@@H](Cc1ccc(O)cc1)C(=O)N[C@H](C(=O)O)C(C)C)[C@@H](C)O` (H-K[Tic]ARNDQEGHILKMFPSTWYV-OH): the inhibition in experiment [2] is 7%. `CC[C@H](C)[C@H](NC(=O)[C@H](Cc1c[nH]cn1)NC(=O)CNC(=O)[C@H](CCC(=O)O)NC(=O)[C@H](CCC(N)=O)NC(=O)[C@H](CC(=O)O)NC(=O)[C@H](CC(N)=O)NC(=O)[C@H](CCCN=C(N)N)NC(=O)[C@H](C)NC(=O)[C@@H]1Cc2ccccc2CN1C(=O)[C@@H](N)CC(C)C)C(=O)N[C@@H](CC(C)C)C(=O)N[C@@H](CCCCN)C(=O)N[C@@H](CCSC)C(=O)N[C@@H](Cc1ccccc1)C(=O)N1CCC[C@H]1C(=O)N[C@@H](CO)C(=O)N[C@H](C(=O)N[C@@H](Cc1c[nH]c2ccccc12)C(=O)N[C@@H](Cc1ccc(O)cc1)C(=O)N[C@H](C(=O)O)C(C)C)[C@@H](C)O` (H-L[Tic]ARNDQEGHILKMFPSTWYV-OH) registered an inhibition in experiment [2] of 7%. The same measure, in the same setting: under `CC[C@H](C)[C@H](NC(=O)[C@H](Cc1c[nH]cn1)NC(=O)CNC(=O)[C@H](CCC(=O)O)NC(=O)[C@H](CCC(N)=O)NC(=O)[C@H](CC(=O)O)NC(=O)[C@H](CC(N)=O)NC(=O)[C@H](CCCN=C(N)N)NC(=O)[C@H](C)NC(=O)[C@@H]1Cc2ccccc2CN1C(=O)[C@@H](N)CCSC)C(=O)N[C@@H](CC(C)C)C(=O)N[C@@H](CCCCN)C(=O)N[C@@H](CCSC)C(=O)N[C@@H](Cc1ccccc1)C(=O)N1CCC[C@H]1C(=O)N[C@@H](CO)C(=O)N[C@H](C(=O)N[C@@H](Cc1c[nH]c2ccccc12)C(=O)N[C@@H](Cc1ccc(O)cc1)C(=O)N[C@H](C(=O)O)C(C)C)[C@@H](C)O` (H-M[Tic]ARNDQEGHILKMFPSTWYV-OH) stands 6%; under `CC[C@H](C)[C@H](NC(=O)[C@H](Cc1c[nH]cn1)NC(=O)CNC(=O)[C@H](CCC(=O)O)NC(=O)[C@H](CCC(N)=O)NC(=O)[C@H](CC(=O)O)NC(=O)[C@H](CC(N)=O)NC(=O)[C@H](CCCN=C(N)N)NC(=O)[C@H](C)NC(=O)[C@@H]1Cc2ccccc2CN1C(=O)[C@@H](N)CC(N)=O)C(=O)N[C@@H](CC(C)C)C(=O)N[C@@H](CCCCN)C(=O)N[C@@H](CCSC)C(=O)N[C@@H](Cc1ccccc1)C(=O)N1CCC[C@H]1C(=O)N[C@@H](CO)C(=O)N[C@H](C(=O)N[C@@H](Cc1c[nH]c2ccccc12)C(=O)N[C@@H](Cc1ccc(O)cc1)C(=O)N[C@H](C(=O)O)C(C)C)[C@@H](C)O` (H-N[Tic]ARNDQEGHILKMFPSTWYV-OH), 9%; under `CC[C@H](C)[C@H](NC(=O)[C@H](Cc1c[nH]cn1)NC(=O)CNC(=O)[C@H](CCC(=O)O)NC(=O)[C@H](CCC(N)=O)NC(=O)[C@H](CC(=O)O)NC(=O)[C@H](CC(N)=O)NC(=O)[C@H](CCCN=C(N)N)NC(=O)[C@H](C)NC(=O)[C@@H]1Cc2ccccc2CN1C(=O)[C@@H](N)CCC(N)=O)C(=O)N[C@@H](CC(C)C)C(=O)N[C@@H](CCCCN)C(=O)N[C@@H](CCSC)C(=O)N[C@@H](Cc1ccccc1)C(=O)N1CCC[C@H]1C(=O)N[C@@H](CO)C(=O)N[C@H](C(=O)N[C@@H](Cc1c[nH]c2ccccc12)C(=O)N[C@@H](Cc1ccc(O)cc1)C(=O)N[C@H](C(=O)O)C(C)C)[C@@H](C)O` (H-Q[Tic]ARNDQEGHILKMFPSTWYV-OH), 4%. For `CC[C@H](C)[C@H](NC(=O)[C@H](Cc1c[nH]cn1)NC(=O)CNC(=O)[C@H](CCC(=O)O)NC(=O)[C@H](CCC(N)=O)NC(=O)[C@H](CC(=O)O)NC(=O)[C@H](CC(N)=O)NC(=O)[C@H](CCCN=C(N)N)NC(=O)[C@H](C)NC(=O)[C@@H]1Cc2ccccc2CN1C(=O)[C@@H](N)CCCN=C(N)N)C(=O)N[C@@H](CC(C)C)C(=O)N[C@@H](CCCCN)C(=O)N[C@@H](CCSC)C(=O)N[C@@H](Cc1ccccc1)C(=O)N1CCC[C@H]1C(=O)N[C@@H](CO)C(=O)N[C@H](C(=O)N[C@@H](Cc1c[nH]c2ccccc12)C(=O)N[C@@H](Cc1ccc(O)cc1)C(=O)N[C@H](C(=O)O)C(C)C)[C@@H](C)O` (H-R[Tic]ARNDQEGHILKMFPSTWYV-OH), the inhibition in experiment [2] stood at 10%.

With `CC[C@H](C)[C@H](NC(=O)[C@H](Cc1c[nH]cn1)NC(=O)CNC(=O)[C@H](CCC(=O)O)NC(=O)[C@H](CCC(N)=O)NC(=O)[C@H](CC(=O)O)NC(=O)[C@H](CC(N)=O)NC(=O)[C@H](CCCN=C(N)N)NC(=O)[C@H](C)NC(=O)[C@@H]1Cc2ccccc2CN1C(=O)[C@@H](N)CO)C(=O)N[C@@H](CC(C)C)C(=O)N[C@@H](CCCCN)C(=O)N[C@@H](CCSC)C(=O)N[C@@H](Cc1ccccc1)C(=O)N1CCC[C@H]1C(=O)N[C@@H](CO)C(=O)N[C@H](C(=O)N[C@@H](Cc1c[nH]c2ccccc12)C(=O)N[C@@H](Cc1ccc(O)cc1)C(=O)N[C@H](C(=O)O)C(C)C)[C@@H](C)O` (H-S[Tic]ARNDQEGHILKMFPSTWYV-OH), the inhibition in experiment [2] worked out at 10%. Turning to `CC[C@H](C)[C@H](NC(=O)[C@H](Cc1c[nH]cn1)NC(=O)CNC(=O)[C@H](CCC(=O)O)NC(=O)[C@H](CCC(N)=O)NC(=O)[C@H](CC(=O)O)NC(=O)[C@H](CC(N)=O)NC(=O)[C@H](CCCN=C(N)N)NC(=O)[C@H](C)NC(=O)[C@@H]1Cc2ccccc2CN1C(=O)[C@@H](N)[C@@H](C)O)C(=O)N[C@@H](CC(C)C)C(=O)N[C@@H](CCCCN)C(=O)N[C@@H](CCSC)C(=O)N[C@@H](Cc1ccccc1)C(=O)N1CCC[C@H]1C(=O)N[C@@H](CO)C(=O)N[C@H](C(=O)N[C@@H](Cc1c[nH]c2ccccc12)C(=O)N[C@@H](Cc1ccc(O)cc1)C(=O)N[C@H](C(=O)O)C(C)C)[C@@H](C)O` (H-T[Tic]ARNDQEGHILKMFPSTWYV-OH), the inhibition in experiment [2] is 17%.

With `N[C@@H](Cc1c[nH]c2ccccc12)C(=O)N1Cc2ccccc2C[C@H]1C(=O)N[C@@H](CCC(=O)O)C(=O)O` (H-Trp-[Tic]-Glu-OH), in experiment [3], the inhibition came to 62%. The compound further came in with an IC50 in experiment [4] of 7 µM. `N[C@@H](Cc1c[nH]c2ccccc12)C(=O)N1Cc2ccccc2C[C@H]1C(=O)O` (H-Trp-[Tic]-OH) gave an inhibition in experiment [3] of 59%. In experiment [4], this compound yielded an IC50 of 5.7 µM.

In experiment [3], `N[C@@H](Cc1c[nH]c2ccccc12)C(=O)N1Cc2ccccc2C[C@H]1C(=O)N[C@@H](CO)C(=O)O` (H-Trp-[Tic]-Ser-OH) had an inhibition of 53%. The compound also returned an IC50 in experiment [4] of 7.9 µM. As to `CC[C@H](C)[C@H](NC(=O)[C@H](Cc1c[nH]cn1)NC(=O)CNC(=O)[C@H](CCC(=O)O)NC(=O)[C@H](CCC(N)=O)NC(=O)[C@H](CC(=O)O)NC(=O)[C@H](CC(N)=O)NC(=O)[C@H](CCCN=C(N)N)NC(=O)[C@H](C)NC(=O)[C@@H]1Cc2ccccc2CN1C(=O)[C@@H](N)C(C)C)C(=O)N[C@@H](CC(C)C)C(=O)N[C@@H](CCCCN)C(=O)N[C@@H](CCSC)C(=O)N[C@@H](Cc1ccccc1)C(=O)N1CCC[C@H]1C(=O)N[C@@H](CO)C(=O)N[C@H](C(=O)N[C@@H](Cc1c[nH]c2ccccc12)C(=O)N[C@@H](Cc1ccc(O)cc1)C(=O)N[C@H](C(=O)O)C(C)C)[C@@H](C)O` (H-V[Tic]ARNDQEGHILKMFPSTWYV-OH), in experiment [2], the inhibition stood at 3%. Regarding `CC[C@H](C)[C@H](NC(=O)[C@H](Cc1c[nH]cn1)NC(=O)CNC(=O)[C@H](CCC(=O)O)NC(=O)[C@H](CCC(N)=O)NC(=O)[C@H](CC(=O)O)NC(=O)[C@H](CC(N)=O)NC(=O)[C@H](CCCN=C(N)N)NC(=O)[C@H](C)NC(=O)[C@@H]1Cc2ccccc2CN1C(=O)[C@@H](N)Cc1c[nH]c2ccccc12)C(=O)N[C@@H](CC(C)C)C(=O)N[C@@H](CCCCN)C(=O)N[C@@H](CCSC)C(=O)N[C@@H](Cc1ccccc1)C(=O)N1CCC[C@H]1C(=O)N[C@@H](CO)C(=O)N[C@H](C(=O)N[C@@H](Cc1c[nH]c2ccccc12)C(=O)N[C@@H](Cc1ccc(O)cc1)C(=O)N[C@H](C(=O)O)C(C)C)[C@@H](C)O` (H-W[Tic]ARNDQEGHILKMFPSTWYV-OH), the inhibition in experiment [2] amounted to 61%.

As to `CC[C@H](C)[C@H](NC(=O)[C@H](Cc1c[nH]cn1)NC(=O)CNC(=O)[C@H](CCC(=O)O)NC(=O)[C@H](CCC(N)=O)NC(=O)[C@H](CC(=O)O)NC(=O)[C@H](CC(N)=O)NC(=O)[C@H](CCCN=C(N)N)NC(=O)[C@H](C)NC(=O)[C@@H]1Cc2ccccc2CN1C(=O)[C@@H](N)Cc1ccc(O)cc1)C(=O)N[C@@H](CC(C)C)C(=O)N[C@@H](CCCCN)C(=O)N[C@@H](CCSC)C(=O)N[C@@H](Cc1ccccc1)C(=O)N1CCC[C@H]1C(=O)N[C@@H](CO)C(=O)N[C@H](C(=O)N[C@@H](Cc1c[nH]c2ccccc12)C(=O)N[C@@H](Cc1ccc(O)cc1)C(=O)N[C@H](C(=O)O)C(C)C)[C@@H](C)O` (H-Y[Tic]ARNDQEGHILKMFPSTWYV-OH), the inhibition in experiment [2] came out at 12%.
